The values that follow come from patent US20190046600A1, “COMPOSITIONS AND USES THEREOF” (priority 2016, published 2019).

As a reminder, the IC50 is the concentration at which inhibition is half-maximal.

Entries after “also recorded” stand apart in the source; their conditions may differ. Read-outs that look alike come from different tables or passages of the source. Square brackets hold non-standard residues; d marks the D form. Peptide text beside a SMILES is read from it. Phe(4-guanidino) = N=C(N)Nc1ccc(C[C@H](N)C(=O)O)cc1

Experiment [1] deals with NCI-H460 human non-small cell cancer. Kind of experiment: In vitro cytotoxicity of Olaparib on NCI-H460, alamarBlue, 96 h. The settings on record: 30 nM Olaparib. The class given is cell-based. How it is done: 2) Cells were harvested and seeded into 96-well plates at 500 cells/well. […] Final DMSO concentration was 0.3%. 4) Cells were grown with compound for 96 hours at 37° C. 5% CO2 in a humidified atmosphere. 5) AlamarBlue® cell viability reagent (Life Technologies, Inc.) 10% (v/v) was then added and incubated for a further 4 hours, and fluorescent product detected using the BMG FLUOstar plate reader. 6) Data were analysed using a 4-parameter logistic equation in GraphPad Prism.
On the technique in general: The colour change of resazurin is a common sign of viable cells or microbes.

For experiment [2], the system named is NCI-H460 cells. The experiment in a line: HILR-001 with or without 30 nM Olaparib on NCI-H460, alamarBlue and CellTiter-Glo time course. The class given is cell-based, human. How it is done: At each time point cell viability was measured by two assay readouts, alamarBlue® and CellTiter-Glo. Conversion of alamarBlue® to a fluorescent product serves as a readout of the metabolic activity of cells, whereas CellTiter-Glo is based on quantification of the ATP present.
2) Cells were harvested and seeded into 96-well plates at 500 cells/well. 3) HILR-001 was made up from a 10 mM stock solution and added directly to cells in doubling dilutions starting at 200 μM. […] The total final DMSO concentration was 0.25%. 4) Cells were grown with compound for 24, 48, 72 or 96 hours at 37° C. 5% CO2 in a humidified atmosphere. 5) AlamarBlue® 10% (v/v) was then added and incubated for a further 4 hours, and fluorescent product detected using the BMG FLUOstar plate reader. 6) On duplicate plates the media was removed from the cells, CellTiter-Glo was diluted in PBS (1:10) and 100 μl added to the cells. 7) Plates were mixed on an orbital shaker for 2 minutes and incubated for a further 10 minutes at room temperature. Luminescent signal was then measured using the BMG FLUOstar plate reader.

Experiment [3] deals with NCI-H460 cells.
Description: Methods measuring cell viability include the use of alamarBlue® cell viability reagent (Life Technologies, Inc.) (resazurin) with fluorescence detection.
1) NCI-H460 cells were grown in Ham's F12 media supplemented with 10% FBS. 2) Cells were harvested and seeded into 96-well plates at 500 cells/well. 3) Compounds were made up from stock solutions and added directly to cells in doubling dilutions starting at 200 μM. Final DMSO concentration was 0.2%. 4) Cells were grown with compound for 96 hours at 37° C. 5% CO2 in a humidified atmosphere. 5) A resazurin dye composition (AlamarBlue® cell viability reagent (Life Technologies, Inc.)) 10% (v/v) was then added and incubated for a further 4 hours, and fluorescent product detected using the BMG FLUOstar plate reader. 6) Media only background readings were subtracted before data were analysed using a 4-parameter logistic equation in GraphPad Prism.
For experiment [4], the system named is NCI-H460 human non-small-cell lung cancer cells. Kind of experiment: Cell survival with or without 2-deoxyglucose, alamarBlue. It is filed as cell-based. As to conditions: combination with 3.125 mmol 2-DOG versus alone. The source says:
Since the compounds according to the invention appeared to be causing cell death by necrosis as a result of NAD/ATP depletion, it was hypothesised that their activity could be potentiated by administering the compounds with a glycolysis inhibitor. The cell killing ability of HILR-025 (SEQ ID NO: 15) and HILR-D-07 sodium salt (SEQ ID NO: 30) in the presence and absence of the glycolysis inhibitor 2-deoxyglucose (2-DOG) was therefore assayed.
NCI-H460 human non-small-cell lung cancer cells were contacted with HILR-025 or HILR-D-07 alone or in combination with 3.125 mmol 2-DOG and cell survival was determined using AlamaBlue® cell viability reagent (Life Technologies, Inc.) in accordance with the manufacturer's instructions.

For experiment [5], the system named is Lactate Dehydrogenase A [LDHA]. The experiment in a line: LDH activity assay on lysates of treated NCI-H460 cells (Abcam ab102526). It is filed as cell-based, human. The settings on record: NCI-H460 cells treated 24 h or 96 h, normalised to protein; read-out: IC50 for inhibiting the activity of LDH. How it is done:
An LDH activity assay was conducted on samples derived from NCI-H460 cells treated with 2 test compounds (HILR-025 and HILR-030) for either 24h or 96h. […] Therefore a BCA assay was conducted to estimate the total amount of protein present in each LDH assay lysate and this was used to normalise the enzyme activity data. As an indication of cell viability, an Alamar blue assay was also carried out at both timepoints, to serve as an additional point of reference.
2) Cells were harvested and seeded into 96-well plates at either 500 cells/well (for the 96h timepoint) or 5000 cells/well for the 24h timepoint. […] 6) At the end of the assay (24 or 96h), Alamar blue 10% (v/v) was added to one set of plates, incubated for a further 4 hours, and fluorescent product detected using the BMG FLUOstar plate reader. […] 10) LDH activity was measured in the cleared lysates using an LDH activity kit (Abcam, ab102526). 11) After preparation of the LDH activity assay reactions, according to the manufacturer's instructions, absorbance at 450 nm was measured at the initial time to determine (A450)initial 12) Further absorbance readings were taken at 3 minute intervals for up to 15 minutes. […] 16) The LDH activity of each sample was determined by the following equation:
[formula] […] Protein content in remaining cleared lysates was determined using a BCA assay (ThermoScientific). • b. Data were analysed using GraphPad Prism. […]

In experiment [6] the test system is NCI H460 Human Non-small cell lung cancer. Kind of experiment: Light microscopy of treated cell cultures. The class given is cell-based. The settings on record: versus DMSO control. How it is done: To investigate further the mechanism of action of the anionic warhead, cultures of NCI H460 Human Non-small cell lung cancer were exposed to HILR-025 and HILR-D-07 and observed using light microscopy. A comparative cell culture was treated with DMSO to provide a negative control.

For experiment [7], the target named is T1, recombinant human caspase 3 (Homo sapiens, UniProt P42574).
T1 construct: purchased Enzo Life Sciences BML-SE169-5000
T1 sequence (P42574 29-175 limits assumed): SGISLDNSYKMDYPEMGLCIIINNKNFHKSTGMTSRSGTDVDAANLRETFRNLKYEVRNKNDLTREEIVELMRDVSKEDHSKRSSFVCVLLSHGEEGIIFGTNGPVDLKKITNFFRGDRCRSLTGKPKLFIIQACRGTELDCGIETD
T1 sequence (P42574 176-277 limits assumed): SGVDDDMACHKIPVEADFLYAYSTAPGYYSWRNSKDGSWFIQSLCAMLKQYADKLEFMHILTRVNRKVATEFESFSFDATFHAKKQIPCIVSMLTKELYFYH
The experiment in a line: Apo-ONE Homogeneous Caspase-3/7 assay with recombinant caspase-3. It is filed as biochemical. The settings on record: 0.1 or 0.3 U enzyme.
Excerpt: DEVD-CHO was used as a positive control.
The Promega kit consists of a buffer that supports caspase 3/7 enzymatic activity and the caspase-3/7 substrate rhodamine 110, bis-(N-CBZL-aspartyl-L-glutamyl-L-valyl-L-aspartic acid amide; Z-DEVD-R110) Z-DEVD-R110 exists as a pro-fluorescent substrate prior to the assay;
upon sequential cleavage and removal of the DEVD peptides by caspase-3/7 activity and excitation at 499 nm, the rhodamine 110 leaving group becomes fluorescent. The amount of fluorescent product generated is reported to be proportional to the amount of caspase-3/7 cleavage that occurs in the sample.
In all subsequent experiments, 0.1 U enzyme was used and plate reader settings were adjusted to read every 5 min for 2h.
The DEVD-CHO control or HILR-030 were co-incubated for 2 hours with substrate or human recombinant caspase-3 according to the protocol in the table below.

Setting [8] is: 30 nM Olaparib co-incubated with 50 μM HILR-001.

Consider `O=C(c1cc(Cc2n[nH]c(=O)c3ccccc23)ccc1F)N1CCN(C(=O)C2CC2)CC1` [Olaparib, 4-[3-(4-cyclopropanecarbonylpiperazine-1-carbonyl)-4-fluorobenzyl]-2H-phthalazin-1-one], for which the “toxicity to NCI-H460 cells” value in experiment [1] is reported as “non-toxic”. Moreover, in experiment [2] (setting [8]), the “ATP levels (CellTiter-Glo)” value is “partially reverses the HILR-001-induced fall in ATP; also recorded: partially restored ATP levels” and the “HILR-001-mediated cell death (alamarBlue)” value is “reversed 50 μM HILR-001-mediated cell death”. For the same compound, in experiment [2] (Olaparib with higher doses of HILR-001 (100 μM and 200 μM)), the “ATP levels or cancer cell death” value was “did not affect ATP levels or cancer cell death”.
In the case of `CC(C)[C@@H]1NC(=O)[C@@H]2CCCN2C(=O)[C@H](CCCNC(=N)N)NC(=O)[C@@H]2CCCN2C(=O)CNC(=O)[C@H](CCCNC(=N)N)NC(=O)[C@@H]2CCCN2C(=O)[C@H](Cc2c[nH]c3ccccc23)NC(=O)[C@H](Cc2c[nH]c3ccccc23)NC(=O)[C@H](CCCNC(=N)N)NC(=O)[C@H](CCCNC(=N)N)NC(=O)[C@H](Cc2c[nH]c3ccccc23)NC(=O)[C@H](Cc2c[nH]c3ccccc23)NC(=O)[C@H](CCCNC(=N)N)NC(=O)[C@H](CCCNC(=N)N)NC(=O)[C@H](Cc2c[nH]c3ccccc23)NC(=O)[C@H](Cc2c[nH]c3ccccc23)NC1=O` [HILR-025] (cyclo(PRGPRPVWWRRWWRRWW)), the IC50 came to 15 µM in experiment [3] (96 h) and 16 µM in experiment [5]. Also, the “cell killing ability with 2-DOG” value in experiment [4] was “enhanced by co-administration with 2-DOG”. Further, the cell morphology result in experiment [6] is listed as “Ring-shaped morphology”.
For `CC(C)[C@@H]1NC(=O)[C@@H]2CCCN2C(=O)[C@H](CCCNC(=N)N)NC(=O)[C@@H]2CCCN2C(=O)CNC(=O)[C@H](CCCNC(=N)N)NC(=O)[C@@H]2CCCN2C(=O)[C@H](Cc2c[nH]c3ccccc23)NC(=O)[C@H](Cc2c[nH]c3ccccc23)NC(=O)[C@H](Cc2ccc(NC(=N)N)cc2)NC(=O)[C@H](Cc2ccc(NC(=N)N)cc2)NC(=O)[C@H](Cc2c[nH]c3ccccc23)NC(=O)[C@H](Cc2c[nH]c3ccccc23)NC(=O)[C@H](Cc2ccc(NC(=N)N)cc2)NC(=O)[C@H](Cc2ccc(NC(=N)N)cc2)NC(=O)[C@H](Cc2c[nH]c3ccccc23)NC(=O)[C@H](Cc2c[nH]c3ccccc23)NC1=O` [HILR-030] (cyclo(PRGPRPVWW[Phe(4-guanidino)][Phe(4-guanidino)]WW[Phe(4-guanidino)][Phe(4-guanidino)]WW)), the IC50 was 6 µM in experiment [3] (NCI-H460, 96 hours with compound, alamarBlue) and 22 µM in experiment [5]. Further, the caspase-3 activity entry in experiment [7] is listed as “inhibited the caspase-3 activity in a dose-dependent fashion”.
